Results published in PubChem BioAssay AID330 (DTP/NCI, 2004).
“And” between values parts separate entries of the source, which are not always exact repeats. Identical values can stand only once. Inconclusive results and toxic doses are left out. How the source made its calls: active means survival T/C of 150% or more; inactive means T/C below 125% in these data.

Tested on: P388 leukemia ip, CD2F1 mice, survival T/C
Assay: NCI In Vivo Anticancer Drug Screen. Data for tumor model P388 Leukemia (intraperitoneal) in CD2F1 (CDF1) mice
Conditions: endpoint: median survival time, higher = longer survival
In short: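 Mice carrying the transplanted tumor received test compound or vehicle. Survival was recorded in each group, and the value is the treated-group measurement divided by that of the vehicle-treated control group.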

[1] = dose: 50.0 mg/kg/injection, schedule: Q01DX009 (ip), vehicle: Klucel (hydroxypropylcellulose) (HPC)
[2] = dose: 100.0 mg/kg/injection, schedule: Q01DX009 (ip), vehicle: Klucel (hydroxypropylcellulose) (HPC)
[3] = dose: 200.0 mg/kg/injection, schedule: Q01DX009 (ip), vehicle: Klucel (hydroxypropylcellulose) (HPC)
[4] = dose: 50.0 mg/kg/injection, schedule: Q01DX005 (ip), vehicle: saline with Tween-80
[5] = dose: 100.0 mg/kg/injection, schedule: Q01DX005 (ip), vehicle: saline with Tween-80
[6] = dose: 200.0 mg/kg/injection, schedule: Q01DX005 (ip), vehicle: saline with Tween-80
[7] = dose: 50.0 mg/kg/injection, schedule: Q01DX009 (ip), vehicle: saline
[8] = dose: 100.0 mg/kg/injection, schedule: Q01DX009 (ip), vehicle: saline
[9] = dose: 6.25 mg/kg/injection, schedule: Q01DX005 (ip), vehicle: Klucel (hydroxypropylcellulose) (HPC)
[10] = dose: 12.5 mg/kg/injection, schedule: Q01DX005 (ip), vehicle: Klucel (hydroxypropylcellulose) (HPC)
[11] = dose: 25.0 mg/kg/injection, schedule: Q01DX005 (ip), vehicle: Klucel (hydroxypropylcellulose) (HPC)
[12] = dose: 50.0 mg/kg/injection, schedule: Q01DX005 (ip), vehicle: Klucel (hydroxypropylcellulose) (HPC)
[13] = dose: 100.0 mg/kg/injection, schedule: Q01DX005 (ip), vehicle: Klucel (hydroxypropylcellulose) (HPC)
[14] = dose: 200.0 mg/kg/injection, schedule: Q01DX005 (ip), vehicle: Klucel (hydroxypropylcellulose) (HPC)
[15] = dose: 200.0 mg/kg/injection, schedule: Q01DX009 (ip), vehicle: saline
[16] = dose: 100.0 mg/kg/injection, schedule: Q04DX002 (ip), vehicle: Klucel (hydroxypropylcellulose) (HPC)
[17] = dose: 200.0 mg/kg/injection, schedule: Q04DX002 (ip), vehicle: Klucel (hydroxypropylcellulose) (HPC)

Measured: T/C

N#CCCn1ccc2ccccc21
inactive: dose: 100.0 mg/kg/injection, schedule: Q04DX003 (ip), vehicle: other 113 % of control | dose: 200.0 mg/kg/injection, schedule: Q04DX003 (ip), vehicle: other 100 % of control | dose: 400.0 mg/kg/injection, schedule: Q04DX003 (ip), vehicle: other 90 % of control

O=C(c1ccccc1)C12CCC(CC1)CC2
inactive: [1] 94 % of control | [2] 94 % of control | [3] 109 % of control

COC(=O)C1c2cc3c(c(O)c2C(O)CC1(C)O)C(=O)c1c(O)cc2c(c1C3=O)OC1OC2(C)C(O)C(N(C)C)C1O (configuration not stated)
inactive: dose: 25.0 mg/kg/injection, schedule: Q01DX010 (ip), vehicle: saline 100 % of control | dose: 50.0 mg/kg/injection, schedule: Q01DX010 (ip), vehicle: saline 90 % of control | dose: 100.0 mg/kg/injection, schedule: Q01DX010 (ip), vehicle: saline 100 % of control | dose: 200.0 mg/kg/injection, schedule: Q01DX010 (ip), vehicle: saline 100 % of control

Oc1cc(Cl)c(O)c(-c2ccccc2)c1Cl
inactive: [4] 102 % of control | [5] 102 % of control | [6] 90 % of control

O=C1C=CCC12CC=CC2=O
inactive: dose: 6.25 mg/kg/injection, schedule: Q01DX001 (ip), vehicle: Klucel (hydroxypropylcellulose) (HPC) 100 % of control and 105 % of control | dose: 12.5 mg/kg/injection, schedule: Q01DX001 (ip), vehicle: Klucel (hydroxypropylcellulose) (HPC) 117 % of control and 94 % of control | dose: 25.0 mg/kg/injection, schedule: Q01DX001 (ip), vehicle: Klucel (hydroxypropylcellulose) (HPC) 100 % of control and 123 % of control

COC(OC)C(C)(C)NC(C)(C)C
inactive: [7] 104 % of control | [8] 100 % of control

O=C1c2ccc3ccccc3c2CCC1C1([n+]2ccccc2)CCc2c(ccc3ccccc23)C1=O (configuration not stated)
inactive: [9] 99 % of control and 109 % of control | [10] 100 % of control and 103 % of control and 98 % of control | [11] 99 % of control and 100 % of control and 112 % of control

COc1cc2c(cc1OC)C1Cc3cc(OC)c(OC)cc3[N+]1(C)CC2 (configuration not stated)
inactive: [4] 103 % of control | [5] 103 % of control

CC1(C)CC(=O)c2c(oc3ccc(O)cc23)C1
inactive: [12] 97 % of control | [13] 97 % of control | [14] 92 % of control

CC(=O)CC(C)(C)C1CCCCC1
inactive: dose: 12.5 mg/kg/injection, schedule: Q01DX009 (ip), vehicle: water 116 % of control | dose: 25.0 mg/kg/injection, schedule: Q01DX009 (ip), vehicle: water 108 % of control | dose: 50.0 mg/kg/injection, schedule: Q01DX009 (ip), vehicle: water 103 % of control | dose: 100.0 mg/kg/injection, schedule: Q01DX009 (ip), vehicle: water 107 % of control | dose: 200.0 mg/kg/injection, schedule: Q01DX009 (ip), vehicle: water 104 % of control

CC(CN)OCc1ccccc1 (configuration not stated)
inactive: dose: 12.5 mg/kg/injection, schedule: Q04DX003 (ip), vehicle: saline 95 % of control | dose: 25.0 mg/kg/injection, schedule: Q04DX003 (ip), vehicle: saline 100 % of control | dose: 50.0 mg/kg/injection, schedule: Q04DX003 (ip), vehicle: saline 100 % of control

C[C@@]1(N=Cc2ccccc2)C(=O)NC(=O)C2=CN(Cc3ccccc3)C=C[C@@H]21
inactive: [12] 102 % of control | [13] 99 % of control | [14] 89 % of control

C=C1CCC2C(C)(CCC(OCCCCC)C2(C)C(=O)OC)C1CCc1ccoc1 (configuration not stated)
inactive: dose: 8.25 mg/kg/injection, schedule: Q01DX005 (ip), vehicle: Klucel + Tween-80 100 % of control | dose: 16.5 mg/kg/injection, schedule: Q01DX005 (ip), vehicle: Klucel + Tween-80 102 % of control | dose: 33.0 mg/kg/injection, schedule: Q01DX005 (ip), vehicle: Klucel + Tween-80 100 % of control | dose: 66.0 mg/kg/injection, schedule: Q01DX005 (ip), vehicle: Klucel + Tween-80 94 % of control

C[CH2][Sn]([Br])([CH2]C)[c]1ccccc1CN(C)C
inactive: dose: 12.5 mg/kg/injection, schedule: Q01DX009 (ip), vehicle: saline 100 % of control and 114 % of control | dose: 25.0 mg/kg/injection, schedule: Q01DX009 (ip), vehicle: saline 100 % of control and 114 % of control | [7] 117 % of control and 124 % of control

CN(C)CCC=C1c2ccccc2C(C)(C)c2ccccc21
inactive: [12] 98 % of control | [13] 97 % of control

Cc1cccc(/C=N/Nc2ccc3ccccc3n2)n1
inactive: [9] 102 % of control | [10] 95 % of control | [11] 96 % of control

COc1cc2c(cc1OC)C(Cc1ccc3cc(OC)c(OC)cc3c1)=NCC2
inactive: dose: 100.0 mg/kg/injection, schedule: Q01DX009 (ip), vehicle: saline with Tween-80 90 % of control | dose: 200.0 mg/kg/injection, schedule: Q01DX009 (ip), vehicle: saline with Tween-80 90 % of control | dose: 400.0 mg/kg/injection, schedule: Q01DX009 (ip), vehicle: saline with Tween-80 100 % of control

CNCCc1ccc(O)c(O)c1
inactive: [8] 108 % of control and 118 % of control | [15] 111 % of control and 98 % of control | dose: 400.0 mg/kg/injection, schedule: Q01DX009 (ip), vehicle: saline 116 % of control and 90 % of control

FC(F)(F)C1(C(F)(F)F)O[Si]2(OC(C(F)(F)F)(C(F)(F)F)c3ccccc32)c2ccccc21
inactive: dose: 25.0 mg/kg/injection, schedule: Q01DX005 (ip), vehicle: distilled water + Tween-80 + alcohol 97 % of control | dose: 25.0 mg/kg/injection, schedule: Q01DX005 (ip), vehicle: saline with Tween-80 105 % of control | dose: 50.0 mg/kg/injection, schedule: Q01DX005 (ip), vehicle: distilled water + Tween-80 + alcohol 96 % of control | [4] 103 % of control | [5] 105 % of control

COC(=O)c1ccc(C(N)=O)nc1
inactive: dose: 25.0 mg/kg/injection, schedule: Q04DX002 (ip), vehicle: Klucel (hydroxypropylcellulose) (HPC) 97 % of control | dose: 50.0 mg/kg/injection, schedule: Q04DX002 (ip), vehicle: Klucel (hydroxypropylcellulose) (HPC) 101 % of control | [16] 96 % of control | [17] 105 % of control

Fc1ccc(N=Cc2cccs2)cc1
inactive: [1] 110 % of control | [2] 107 % of control | [3] 110 % of control

CNC(=O)On1cc(Cl)cc1C#N
inactive: dose: 50.0 mg/kg/injection, schedule: Q01DX001 (ip), vehicle: Klucel (hydroxypropylcellulose) (HPC) 101 % of control | dose: 100.0 mg/kg/injection, schedule: Q01DX001 (ip), vehicle: Klucel (hydroxypropylcellulose) (HPC) 118 % of control

CS(=O)(=O)OCC(F)(F)COS(C)(=O)=O
inactive: [4] 94 % of control | [5] 100 % of control | [6] 99 % of control

COc1ccc2c(c1OC)CCN1C3=C(CC(OC(=O)c4ccccc4)CC3)C(=O)CC21 (configuration not stated)
inactive: dose: 100.0 mg/kg/injection, schedule: Q01DX001 (ip), vehicle: saline sonified 100 % of control | dose: 200.0 mg/kg/injection, schedule: Q01DX001 (ip), vehicle: saline sonified 110 % of control | dose: 400.0 mg/kg/injection, schedule: Q01DX001 (ip), vehicle: saline sonified 110 % of control

CCCCCCC(/C=C/c1ccc(Cl)c(Cl)c1)=N\NC(=O)C[n+]1ccccc1
inactive: [7] 99 % of control | [8] 101 % of control | [15] 101 % of control

O=C(O)c1c[nH]c2cc([N+](=O)[O-])ccc2c1=O
inactive: dose: 12.5 mg/kg/injection, schedule: Q01DX009 (ip), vehicle: saline with Tween-80 94 % of control | dose: 25.0 mg/kg/injection, schedule: Q01DX009 (ip), vehicle: saline with Tween-80 88 % of control | dose: 50.0 mg/kg/injection, schedule: Q01DX009 (ip), vehicle: saline with Tween-80 87 % of control | [7] 104 % of control

CC(O)C(=O)NC1CCCCC1 (configuration not stated)
inactive: dose: 50.0 mg/kg/injection, schedule: Q01DX005 (ip), vehicle: saline 98 % of control | dose: 100.0 mg/kg/injection, schedule: Q01DX005 (ip), vehicle: saline 88 % of control | dose: 200.0 mg/kg/injection, schedule: Q01DX005 (ip), vehicle: saline 89 % of control

CNCCCc1cc(-c2ccc([N+](=O)[O-])cc2)n[nH]1
inactive: [16] 100 % of control | [17] 100 % of control
